According to ChEMBL document CHEMBL1649226, “Species identification and antifungal susceptibility patterns of species belonging to Aspergillus section Nigri” (2009):
≈ marks a conversion by molar mass, not a printed value.

Key:
Type in all cases: functional
[1] = tested on: Aspergillus niger; test: Antifungal activity against Aspergillus niger isolate CM-3636 obtained from respiratory tract infection of patient after 48 hrs by EUCAST broth dilution method; details: isolate CM-3636, 48 h
[2] = tested on: Aspergillus tubingensis; test: Antifungal activity against Aspergillus tubingensis isolate CM-3654 obtained from blood culture after 48 hrs by EUCAST broth dilution method; details: isolate CM-3654, 48 h
[3] = tested on: Aspergillus tubingensis; test: Antifungal activity against Aspergillus tubingensis isolate CM-3123 obtained from respiratory tract infection of patient after 48 hrs by EUCAST broth dilution method; details: isolate CM-3123, 48 h
[4] = tested on: Aspergillus foetidus; test: Antifungal activity against Aspergillus foetidus isolate CM-4002 after 48 hrs by EUCAST broth dilution method; details: isolate CM-4002, 48 h
[5] = tested on: Aspergillus tubingensis; test: Antifungal activity against Aspergillus tubingensis isolate CM-4001 after 48 hrs by EUCAST broth dilution method; details: isolate CM-4001, 48 h
[6] = tested on: Aspergillus tubingensis; test: Antifungal activity against Aspergillus tubingensis isolate CM-3125 obtained from respiratory tract infection of patient after 48 hrs by EUCAST broth dilution method; details: isolate CM-3125, 48 h
[7] = tested on: Aspergillus tubingensis; test: Antifungal activity against Aspergillus tubingensis isolate CM-3810 obtained from respiratory tract infection of patient after 48 hrs by EUCAST broth dilution method; details: isolate CM-3810, 48 h
[8] = tested on: Aspergillus tubingensis; test: Antifungal activity against Aspergillus tubingensis isolate CM-4688 obtained from respiratory tract infection of patient after 48 hrs by EUCAST broth dilution method; details: isolate CM-4688, 48 h
[9] = tested on: Aspergillus foetidus; test: Antifungal activity against Aspergillus foetidus isolate CM-4995 obtained from prosthesis after 48 hrs by EUCAST broth dilution method; details: isolate CM-4995, 48 h
[10] = tested on: Aspergillus niger; test: Antifungal activity against Aspergillus niger isolate CM-4316 obtained from respiratory tract infection of patient after 48 hrs by EUCAST broth dilution method; details: isolate CM-4316, 48 h
[11] = tested on: Aspergillus foetidus; test: Antifungal activity against Aspergillus foetidus isolate CM-5264 obtained from respiratory tract infection of patient after 48 hrs by EUCAST broth dilution method; details: isolate CM-5264, 48 h
[12] = tested on: Aspergillus niger; test: Antifungal activity against Aspergillus niger isolate CM-4262 after 48 hrs by EUCAST broth dilution method Ophthalmic; details: isolate CM-4262, 48 h
[13] = tested on: Aspergillus tubingensis; test: Antifungal activity against Aspergillus tubingensis isolate CM-4003 after 48 hrs by EUCAST broth dilution method; details: isolate CM-4003, 48 h
[14] = tested on: Aspergillus tubingensis; test: Antifungal activity against Aspergillus tubingensis isolate CM-4005 after 48 hrs by EUCAST broth dilution method; details: isolate CM-4005, 48 h
[15] = tested on: Aspergillus tubingensis; test: Antifungal activity against Aspergillus tubingensis isolate CM-3507 obtained from respiratory tract infection of patient after 48 hrs by EUCAST broth dilution method; details: isolate CM-3507, 48 h
[16] = tested on: Aspergillus niger; test: Antifungal activity against Aspergillus niger isolate CM-4004 obtained from after 48 hrs by EUCAST broth dilution method; details: isolate CM-4004, 48 h
[17] = tested on: Aspergillus tubingensis; test: Antifungal activity against Aspergillus tubingensis isolate CM-4897 obtained from blood culture after 48 hrs by EUCAST broth dilution method; details: isolate CM-4897, 48 h
[18] = tested on: Aspergillus niger; test: Antifungal activity against Aspergillus niger isolate CM-3586 obtained from catheter of patient after 48 hrs by EUCAST broth dilution method; details: isolate CM-3586, 48 h
[19] = tested on: Aspergillus niger; test: Antifungal activity against Aspergillus niger isolate CM-3641 obtained from respiratory tract infection of patient after 48 hrs by EUCAST broth dilution method; details: isolate CM-3641, 48 h
[20] = tested on: Aspergillus tubingensis; test: Antifungal activity against Aspergillus tubingensis isolate CM-4899 obtained from respiratory tract infection of patient after 48 hrs by EUCAST broth dilution method; details: isolate CM-4899, 48 h
[21] = tested on: Aspergillus niger; test: Antifungal activity against Aspergillus niger isolate CM-3257 obtained from respiratory tract infection of patient after 48 hrs by EUCAST broth dilution method; details: isolate CM-3257, 48 h
[22] = tested on: Aspergillus tubingensis; test: Antifungal activity against Aspergillus tubingensis isolate CM-5094 obtained from respiratory tract infection of patient after 48 hrs by EUCAST broth dilution method; details: isolate CM-5094, 48 h
[23] = tested on: Aspergillus niger; test: Antifungal activity against Aspergillus niger isolate CM-4213 obtained from respiratory tract infection of patient after 48 hrs by EUCAST broth dilution method; details: isolate CM-4213, 48 h
[24] = tested on: Aspergillus niger; test: Antifungal activity against Aspergillus niger isolate CM-3551 obtained from respiratory tract infection of patient after 48 hrs by EUCAST broth dilution method; details: isolate CM-3551, 48 h
[25] = tested on: Aspergillus niger; test: Antifungal activity against Aspergillus niger isolate CM-3506 obtained from respiratory tract infection of patient after 48 hrs by EUCAST broth dilution method; details: isolate CM-3506, 48 h
[26] = tested on: Aspergillus tubingensis; test: Antifungal activity against Aspergillus tubingensis isolate CM-3177 obtained from respiratory tract infection of patient after 48 hrs by EUCAST broth dilution method; details: isolate CM-3177, 48 h
[27] = tested on: Aspergillus tubingensis; test: Antifungal activity against Aspergillus tubingensis isolate CM-4000 after 48 hrs by EUCAST broth dilution method; details: isolate CM-4000, 48 h
[28] = tested on: Aspergillus tubingensis; test: Antifungal activity against Aspergillus tubingensis isolate CM-4264 obtained from blood culture after 48 hrs by EUCAST broth dilution method; details: isolate CM-4264, 48 h
[29] = tested on: Aspergillus tubingensis; test: Antifungal activity against Aspergillus tubingensis isolate CM-4352 obtained from respiratory tract infection of patient after 48 hrs by EUCAST broth dilution method; details: isolate CM-4352, 48 h
[30] = tested on: Aspergillus tubingensis; test: Antifungal activity against Aspergillus tubingensis isolate CM-4296 obtained from respiratory tract infection of patient after 48 hrs by EUCAST broth dilution method; details: isolate CM-4296, 48 h
[31] = tested on: Aspergillus niger; test: Antifungal activity against Aspergillus niger isolate CM-3236 obtained from respiratory tract infection of patient after 48 hrs by EUCAST broth dilution method; details: isolate CM-3236, 48 h
[32] = tested on: Aspergillus niger; test: Antifungal activity against Aspergillus niger isolate CM-5095 obtained from respiratory tract infection of patient after 48 hrs by EUCAST broth dilution method; details: isolate CM-5095, 48 h
[33] = tested on: Aspergillus niger; test: Antifungal activity against Aspergillus niger isolate CM-3672 obtained from cutaneous layer of patient after 48 hrs by EUCAST broth dilution method; details: isolate CM-3672, 48 h
[34] = tested on: Aspergillus tubingensis; test: Antifungal activity against Aspergillus tubingensis isolate CM-3585 after 48 hrs by EUCAST broth dilution method; details: isolate CM-3585, 48 h

C[C@@H](c1nc(-c2ccc(C#N)cc2)cs1)[C@](O)(Cn1cncn1)c1ccc(F)cc1F [RAVUCONAZOLE]
MIC [1]: 1 µg/mL (≈ 2.29 µM) | MIC [2]: 2.5 µg/mL (≈ 5.71 µM) | MIC [3]: 2.67 µg/mL (≈ 6.1 µM) | MIC [4]: 2.67 µg/mL (≈ 6.1 µM) | MIC [5]: 2.5 µg/mL (≈ 5.71 µM) | MIC [6]: 1.67 µg/mL (≈ 3.82 µM) | MIC [7]: 2 µg/mL (≈ 4.57 µM) | MIC [8]: 3.33 µg/mL (≈ 7.61 µM) | MIC [9]: 2 µg/mL (≈ 4.57 µM) | MIC [10]: 1 µg/mL (≈ 2.29 µM) | MIC [11]: 8 µg/mL (≈ 18.3 µM) | MIC [12]: 2 µg/mL (≈ 4.57 µM) | MIC [13]: 4 µg/mL (≈ 9.14 µM) | MIC [14]: 4 µg/mL (≈ 9.14 µM) | MIC [15]: 1.5 µg/mL (≈ 3.43 µM) | MIC [16]: 1.67 µg/mL (≈ 3.82 µM) | MIC [17]: 2 µg/mL (≈ 4.57 µM) | MIC [18]: 2 µg/mL (≈ 4.57 µM) | MIC [19]: 1 µg/mL (≈ 2.29 µM) | MIC [20]: 2.67 µg/mL (≈ 6.1 µM) | MIC [21]: 1 µg/mL (≈ 2.29 µM) | MIC [22]: 2 µg/mL (≈ 4.57 µM) | MIC [23]: 0.58 µg/mL (≈ 1.33 µM) | MIC [24]: 2 µg/mL (≈ 4.57 µM) | MIC [25]: 1 µg/mL (≈ 2.29 µM) | MIC [26]: 3.33 µg/mL (≈ 7.61 µM) | MIC [27]: 2 µg/mL (≈ 4.57 µM) | MIC [28]: 1.5 µg/mL (≈ 3.43 µM) | MIC [29]: 2 µg/mL (≈ 4.57 µM) | MIC [30]: 1.5 µg/mL (≈ 3.43 µM) | MIC [31]: 1 µg/mL (≈ 2.29 µM) | MIC [32]: 1.5 µg/mL (≈ 3.43 µM) | MIC [33]: 1.5 µg/mL (≈ 3.43 µM) | MIC [34]: 1.67 µg/mL (≈ 3.82 µM)
